Test results as given in PubChem BioAssay AID1918952 (Molecular Pharmacology Branch, DTP, NCI, 2023).

Tested on: LG0703-F948-PDC complex spheroid viability
Test: Anticancer human tumor LG0703-F948-PDC patient-derived lung adenocarcinoma cell line growth inhibition
Conditions: for IC50: curve of first compound; for viability, T/C: stronger effect = lower value
Method in brief: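 Drug combinations with the LSD1 inhibitor iadademstat tested on tumor cells co-cultured as spheroids with endothelial cells and mesenchymal stem cells. Concentrations descended in half-log increments from clinical Cmax or 10 microM.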
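Note: spheroids exposed to agents for seven days before readout.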
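Throughout, for viability, T/C: 100% = DMSO vehicle control wells as normalization base.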

SMILES: CC1(C)CCC(CN2CCN(c3ccc(C(=O)NS(=O)(=O)c4ccc(NCC5CCOCC5)c([N+](=O)[O-])c4)c(Oc4cnc5[nH]ccc5c4)c3)CC2)=C(c2ccc(Cl)cc2)C1 + NC1CCC(NC2CC2c2ccccc2)CC1
- IC50 (second compound 0.1 µM): 2380 nM
- IC50 (second compound 0.316 µM): 2180 nM
- IC50 (second compound 1 µM): 2550 nM
- IC50 (second compound 3.16 µM): 2630 nM
- IC50 (second compound 10 µM): 2360 nM
- viability, T/C (second compound 0.1 µM, first compound 0.0316 µM): 107%
- viability, T/C (second compound 0.1 µM, first compound 0.1 µM): 90.9%
- viability, T/C (second compound 0.1 µM, first compound 0.316 µM): 85.2%
- viability, T/C (second compound 0.1 µM, first compound 1 µM): 99.4%
- viability, T/C (second compound 0.1 µM, first compound 3.16 µM): 34.9%
- viability, T/C (second compound 0.1 µM, first compound 10 µM): 2.77%
- viability, T/C (second compound 0.316 µM, first compound 0.0316 µM): 97.3%
- viability, T/C (second compound 0.316 µM, first compound 0.1 µM): 99.2%
- viability, T/C (second compound 0.316 µM, first compound 0.316 µM): 102%
- viability, T/C (second compound 0.316 µM, first compound 1 µM): 112%
- viability, T/C (second compound 0.316 µM, first compound 3.16 µM): 24.9%
- viability, T/C (second compound 0.316 µM, first compound 10 µM): 2.76%
- viability, T/C (second compound 1 µM, first compound 0.0316 µM): 100%
- viability, T/C (second compound 1 µM, first compound 0.1 µM): 119%
- viability, T/C (second compound 1 µM, first compound 0.316 µM): 117%
- viability, T/C (second compound 1 µM, first compound 1 µM): 103%
- viability, T/C (second compound 1 µM, first compound 3.16 µM): 37.8%
- viability, T/C (second compound 1 µM, first compound 10 µM): 2.92%
- viability, T/C (second compound 3.16 µM, first compound 0.0316 µM): 126%
- viability, T/C (second compound 3.16 µM, first compound 0.1 µM): 119%
- viability, T/C (second compound 3.16 µM, first compound 0.316 µM): 135%
- viability, T/C (second compound 3.16 µM, first compound 1 µM): 118%
- viability, T/C (second compound 3.16 µM, first compound 3.16 µM): 36.9%
- viability, T/C (second compound 3.16 µM, first compound 10 µM): 2.37%
- viability, T/C (second compound 10 µM, first compound 0.0316 µM): 112%
- viability, T/C (second compound 10 µM, first compound 0.1 µM): 114%
- viability, T/C (second compound 10 µM, first compound 0.316 µM): 104%
- viability, T/C (second compound 10 µM, first compound 1 µM): 99.1%
- viability, T/C (second compound 10 µM, first compound 3.16 µM): 33.4%
- viability, T/C (second compound 10 µM, first compound 10 µM): 2.95%
